Source: EPA's ToxValDB 9.5 (doi:10.2903/j.efsa.2015.4043)
≈ marks a conversion by molar mass, not a printed value.

How the values were obtained:
Anas platyrhynchos = conditions: reproductive
Pimephales promelas = conditions: chronic/long-term; duration: 32 days; growth
Gammaridae = conditions: chronic/long-term; duration: 28 days
Colinus virginianus = conditions: acute, oral, mortality
Cyprinus carpio = conditions: acute; duration: 96 hours; mortality
Apis mellifera = conditions: acute, mortality

Cn1cc(C(=O)Nc2cccc3c2[C@@H]2CC[C@H]3C2=C(Cl)Cl)c(C(F)F)n1 [Benzovindiflupyr] showed an LC50 (Pontoscolex corethrurus; acute, duration: 14 days, mortality) of 406 mg/kg, an NOEC (Pontoscolex corethrurus; chronic/long-term, duration: 8 weeks) of 7.81 mg/kg and an NOEC (Anas platyrhynchos) of 25 mg/kg-day. The NOEC (Pimephales promelas) was 0.00095 mg/L, the NOEC (Gammaridae) was 4.1 mg/kg and the LC50 (Colinus virginianus; diet) was over 1170 mg/kg-day. For the same molecule, the LD50 (Colinus virginianus) was 1320 mg/kg, the LC50 (Neomysis kadiakensis; acute, duration: 96 hours, mortality) was 0.056 µg/mL (≈ 0.141 µM) and the NOEC (Neomysis kadiakensis; chronic/long-term, duration: 28 days, reproduction) was 0.0074 mg/L. For the same molecule, the LC50 (Cyprinus carpio) was 0.0035 µg/mL (≈ 0.00879 µM), the LD50 (Apis mellifera; dermal) was over 100 µg/piece and the LD50 (Apis mellifera; oral, unspecified) was over 109 µg/piece. The LD50 (Rattus norvegicus; acute, mortality) was 55 mg/kg, the NOAEL (Rattus norvegicus; acute, neurology) was 10 mg/kg-day and the NOAEL (Rattus norvegicus; chronic) was 6.8 mg/kg-day. The NOAEL (Rattus norvegicus; chronic, duration: 2 years, histopathology: nonneoplastic) was 4.88 mg/kg-day, the NOAEL (Rattus norvegicus; reproduction developmental, M/F, reproduction) was 6.8 mg/kg-day and the NOAEL (Rattus norvegicus; subchronic, duration: 90 days, oral, organ weight) was 7.6 mg/kg-day.
